# Results taken from patent US20210145768A1, “MODULATING IMMUNE RESPONSE VIA TARGETING OF OLFACTORY RECEPTOR ACTIVITY” (La Jolla Institute for Allergy and Immunology, priority 2018, published 2021).
# “Also recorded” adds a separate entry of the source.
# Tests used:
# Olfr2 [1] = target: T1, Olfr2 (Mus musculus, UniProt Q9QWU6); test: Inflammatory gene expression (real time PCR) in explanted whole aortas treated with octanal, citral, LPS; format: cell-based; parameters: Olfr2 expression was confirmed at the protein level on F4/80^+ vascular macrophages; from tissue; host or cells: explanted whole aortas, digested aortic cell suspensions (F4/80+ vascular macrophages) and blood monocytes of Apoe-/- C57BL/6J mice; living Apoe-/- mice for the in vivo study; settings: for octanal-induced increase in CCL2, CCL4, TNF and iNOS (Nos2) expression: citral 100 μM with octanal 10 μM, in presence and absence of LPS; for mRNA expression of Ccl2, Ccl4, Tnf and Nos2 (iNOS): explanted whole aortas of Apoe−/− mice on WD 2 weeks, octanal 10 μM alone, normalized to Gapdh and untreated control
# T1 sequence (Q9QWU6 1-327): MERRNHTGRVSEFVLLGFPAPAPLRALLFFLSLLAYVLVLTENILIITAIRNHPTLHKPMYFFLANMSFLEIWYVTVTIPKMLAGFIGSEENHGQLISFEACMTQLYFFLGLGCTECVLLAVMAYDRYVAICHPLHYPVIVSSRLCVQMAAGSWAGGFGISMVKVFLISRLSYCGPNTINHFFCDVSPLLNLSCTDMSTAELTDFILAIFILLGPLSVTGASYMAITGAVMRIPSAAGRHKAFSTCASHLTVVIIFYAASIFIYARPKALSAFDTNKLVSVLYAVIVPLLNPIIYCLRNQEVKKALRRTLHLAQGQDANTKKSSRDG
# Method: Gene expression analysis was performed by harvesting whole aortas from apoE^−/− mice kept on western diet (WD) for 2 weeks and treating for 12h with DMSO (Ctrl), citral (Cit, 100 μM), octanal (Oct, 10 μM in DMSO) or lipopolysaccharide (lps, 0.5 μg/mL in DMSO) alone or in combination. After the incubation, aortas were transferred in Trizol reagent (1 ml) and digested with gentleMACS™ Dissociator (Millteny). Total RNA was then purified with RNAse Micro kit (Qiagen) and reverse transcribed using the Omniscript reverse transcriptase kit (Qiagen). Real-time PCR reaction was performed following the RT^2 Sybr green gene expression assay protocol (Qiagen). RT2 SYBR Green qPCR mastermix mix and premade RT^2 qPCR Primer Assay for mouse GAPDH, CCL2, CCL4, TNF, and iNOS were used. Data were normalized to the expression levels of the housekeeping gene GAPDH.
# To test physiologic effects of Olfr2 activation in situ, explanted whole aortas of mice (n=5 per group) were treated with octanal with or without LPS. Briefly, whole aortas were left untreated or incubated with the Olfr2 agonist octanal (Oct, 10 μM), LPS, (500 ng/mL), or with both for 12 h. Quantitative Real time PCR reaction was performed to detect Ccl2, Ccl4, Tnf, and Nos2 gene expression. Relative expression was normalized to Gapdh expression and the untreated control. […] TNF secretion by vascular macrophages (F4/80+) was confirmed by intracellular staining using flow cytometry (FIG. 7F).
# Apoe^−/− mice were fed WD for 2 weeks before sacrifice for aorta explant culture. Whole aortas were incubated in culture medium with DMSO (0.1% as a vehicle), octanal (Oct, 10 μM), LPS (500 ng/mL) alone or octanal and LPS combined (LPS+Oct) for 12 h at 37° C. and 5% CO2. Subsequently, aortas were collected and further processed as below discussed for RNA extraction, and flow cytometry analysis. Culture supernatants were collected, aliquoted, and frozen at −80° C. until further analysis.
# BMDMs and hMDMs were incubated in culture media for 12 h at 37° C. and 5% CO2 with Oct, (10 μM), LPS (500 ng/mL) alone or combined with Oct (LPS+Oct) and DMSO (0.1%) as a control and lysed with Qiazol (500 μL; Qiagen) Similarly, whole aortas incubated as previously described were transferred into Qiazol (500 μl; Qiagen) and digested with gentleMACS™ Dissociator (Miltenyi).
# RNA extraction was performed using a Qiazol/RNAeasy micro kit hybrid protocol (Qiagen).
# Total RNA was quantified using a nanodrop spectrophotometer (Peqlab) and 500 ng were reverse transcribed into cDNA using Omniscript reverse transcriptase (Qiagen). Real time PCR reactions were performed according to the RT^2 SYBR green gene expression assay protocol (Qiagen). RT2 SYBR Green qPCR master mix and premade RT^2 qPCR Primer Assays for mouse Olfr2, Rtp1, Rtp2, Ccl2, Ccl4, Tnf, Nos2 and Gapdh were used. Similarly, real time PCR analysis of hMDMs samples was performed following the RT^2 SYBR green gene expression assay protocol (Qiagen), applying RT^2 SYBR Green qPCR master mix and premade RT^2 qPCR Primer Assays for human OR6A2, TNF, IL-6, NOS2 and GAPDH. The results were calculated applying the 2^−ΔΔCT method^32 using Gapdh/GAPDH as housekeeping gene.
# Olfr2 [2] = target: T1, Olfr2; test: IL-1β production in LPS-primed mouse BMDMs; format: cell-based; parameters: Olfr2 expression was confirmed at the protein level on F4/80^+ vascular macrophages; from tissue; host or cells: explanted whole aortas, digested aortic cell suspensions (F4/80+ vascular macrophages) and blood monocytes of Apoe-/- C57BL/6J mice; living Apoe-/- mice for the in vivo study
# Method: Macrophages are known producers of one of the most prominent cytokines driving atherosclerosis, IL-1β^29. IL-1β production and secretion requires assembly of the inflammasome, a cytoplasmic complex containing several proteins that serves as a molecular platform for activation of the cysteine protease caspase^30,31. To test whether octanal induced IL-1β secretion in macrophages, BMDMs were primed with low-dose LPS (50 ng/mL) for 18 h followed by exposure to octanal alone or together with citral. IL-1β protein in the supernatant was quantified by a cytokine bead array. Data are presented as mean±SEM. *p<0.05, **p<0.01, ***p<0.005, ****p<0.001. p calculated by One-Way ANOVA test, Tukey's multiple comparisons test and unpaired t-test.
# Mouse BMDMs and human MDMs were pretreated with LPS (50 ng/mL) or left untreated for 18 h at 37° C. and 5% CO2. […]
# Supernatants of stimulated cells and aortic tissue were analyzed by BD CBA Flex Sets (BD Biosciences) for mouse TNFα, CCL2, CCL4, IL-1β, or human TNF, IL6, and IL-1β according to the manufacturer's protocol. Samples were analyzed with LSR-II (BD Biosciences). Data was acquired with FACSDiva software (BD Biosciences) and analyzed with FCAP array software 3.0 (BD Biosciences).
Compound,"octanal-induced increase in CCL2, CCL4, TNF and iNOS (Nos2) expression (Olfr2 [1]; explanted aortas, 12 h)","octanal-induced increase in CCL2, CCL4, TNF and iNOS (Nos2) expression (Olfr2 [1]; explanted aortas, 12 h, listed as Cit)","octanal-induced IL-1β release, mouse BMDMs (Olfr2 [2]; LPS priming, octanal 10 μM + citral 100 μM)","LPS-induced expression of inflammatory molecules (Ccl2, Ccl4, Tnf, Nos2) (Olfr2 [1]; explanted aortas, octanal 10 μM + LPS 500 ng/mL, 12 h)","mRNA expression of Ccl2, Ccl4, Tnf and Nos2 (iNOS) (Olfr2 [1]; 12 h)","mRNA expression of Ccl2, Ccl4, Tnf and Nos2 (iNOS) (Olfr2 [1]; 12 h, listed as Oct)","LPS induction of CCL2 (MCP-1) and CCL4 (Olfr2 [1]; qRT-PCR, octanal + LPS)","iNOS expression induced by LPS (Olfr2 [1]; qRT-PCR, octanal + LPS)","TNF expression (Olfr2 [1]; qRT-PCR, octanal + LPS, Olfr2 ligation required to reveal LPS-induced increase)","CCL2 and CCL4 expression (Olfr2 [1]; qRT-PCR, octanal alone (without LPS))","release of IL-1β into the supernatant, mouse BMDMs (Olfr2 [2]; LPS 50 ng/mL 18 h priming, then octanal 10 μM)"
CC(C)=CCCC(C)=CC=O [citral],completely blocked; also recorded: effective at curbing inflammatory mediator expression,reduced,inhibited,,,,,,,,
CCCCCCCC=O [octanal],,,,exacerbate the inflammatory response; also recorded: significantly enhances; also recorded: enhanced the LPS-induced expression,induces expression of inflammatory mediators; also recorded: induced mRNA expression,induces pro-inflammatory gene expression,significantly enhanced,greatly enhanced,greatest effect,measurable increase,strongly increased
